Several values for one entry are separate records, joined by “and”; a condition that tells them apart may be missing. Identical values can stand only once. Like-named read-outs stand apart in the source and are kept apart here.

In data set [1] the test system is NCI-H1975 cells (EGFR L858R/T790M) tumor xenograft. As to the method: (§1) Xenotransplantation of human cancer cells into immunocompromised mice is a gold-standard model used for pre-clinical oncology research and testing of anti-cancer therapies. In general, human cancer cell lines are injected below the skin of the mouse. […] The primary outcome parameter is growth inhibition by the drug, for which tumor size is measured over time, often externally with calipers. After the tumor reaches a certain size, the mice are euthanized. Drug effects on the tumor are further analyzed on a tissue level or molecular level (e.g., DNA, proteins). The primary outcome parameter of a xenograft model for testing drug efficacy is the growth of the treated tumor versus control. Typically, xenograft tumors grow from 100 mm^3 (6 mm diameter) to 1000 mm^3 (12 mm diameter) in several weeks. The growth rate often declines with larger tumor sizes, as opposed to exponential growth in (2D) in vitro experiments. Tumor growth inhibition varies per drug and implanted cell line. The effect of therapeutics can be directly on tumor cells, or indirectly via the microenvironment such as the inhibition of vessel formation, or both.
(§2) The experiment animals used were of Balb/c-nu mouse, female, ages 5^˜7 weeks, weight 17^˜21 g.
(§3) To establish xenograft model of NSCLC, two lung cancer cell lines expressing were used. Human lung adenocarcinoma cell line HCC827_936 was clonally derived from HCC827 cell line isolated from NSCLC tissue of a patient (ATCC). HCC827_936 cells express EGFR mutations of exon19del and exon20ins. The other lung cancer cell line, NCI-H1975 cells (ATCC), express the EGFR L858R/T790M double mutation.
(§4) Each of the three human cancer cell lines was cultured in RPMI1640 medium containing 10% fetal bovine serum, collected in the exponential growth phase, resuspended in PBS to a suitable concentration, and used for subcutaneous tumor implantation in mice.
When the tumor grew to an average volume of about 170 mm^3, randomly grouped according to tumor size and mouse weight to establish […] NCI-H1975 xenograft model.
(§5) Tumor volume (mm^3) V=½×[…], where a represents the long diameter and b represents the short diameter. Relative tumor volume (RTV), RTV=Vt/V0, where V0 is the tumor volume at time 0 and Vt is the tumor volume after treatment at time t. The T/C value (%) is an indicator of the tumor response to treatment and is the most used evaluation indicator. T/C %=TRTV/CRTV×100%, where TRTV is treatment group average RTV and CRTV is control group average RTV. The T/C value (%) can also be calculated as T/C %=TTW/CTW×100%, where TTW is the average tumor weight at the end of the treatment group experiment and CTW is the average tumor weight at the end of the control group experiment.

For data set [2], the system named is HCC827_936 cells (EGFR exon19del and exon20ins) tumor xenograft. On the procedure: as §1, §2, §3, §4
When the tumor grew to an average volume of about 163 mm^3, randomly grouped according to tumor size and mouse weight to establish HCC827_936 xenograft model.
as §5

Data set [3] concerns FaDu cells (wild type EGFR) tumor xenograft. As to the method:
as §1, §2
To establish xenograft model of HNSCC, human head and neck cancer cells, FaDu cells, were transplanted into the mice to establish the xenograft model of HNSCC. FaDu is a cell line isolated from a hypopharyngeal tumor of a squamous cell carcinoma patient, which expresses wild type EGFR (ATCC).
as §4
When the tumor grew to an average volume of about 230 mm3, randomly grouped according to tumor size and mouse weight to establish human head and neck squamous cell carcinoma cells FaDu xenograft model.
as §5, with “(mm3)” for “(mm^3)”

Where [4] appears, read: Osimertinib 96 mg/kg p.o. QD, Day 25.
Setting [5] is: Osimertinib 96 mg/kg/wk p.o. QD, Day 31.

In the case of `C=CC(=O)Nc1cc(Nc2nccc(-c3cn(C)c4ccccc34)n2)c(OC)cc1N(C)CCN(C)C` [Osimertinib], in data set [1] (setting [4]), the T/C – broadly, the result in the treated group divided by that in the control group, in per cent – was determined as 4.7% and the “Tumor volume x ± SD” value is 75.02 mm^3. Further, in data set [1] (mouse, in vivo), the inhibition of tumour growth (TGI) (in general, the reduction of tumour growth relative to the control group) was 95.35% and 95.4%; the “Tumor volume x ± SD” value is 75.0 ± 60.3 mm^3; the “mice died before D25” value was “no mouse died”. Further, in data set [2] (setting [5]), the T/C was determined as 45.1% and the “Tumor volume x ± SD” value came out at 344.53 mm^3. The molecule further registered a mortality rate in data set [2] (Osimertinib single-agent (96 mg/kg), before D31) of 60%. Moreover, in data set [2] (female, Balb/c-nu, mouse, in vivo), the “mice died before D31” value is recorded as 3. Also, in data set [2] (mouse, in vivo), the tumour growth inhibition (TGI) is 54.89% and 54.9%; the “Tumor volume x ± SD” value came to 344.5 ± 23.6 mm^3.

On to paclitaxel+carboplatin, for which the “body weight / weight loss” value in data set [3] (all dose groups of the treatment) is “fluctuated significantly”. For the same molecule, in data set [3] (all dose groups of the treatment, 5 mice per group), the “death of mice before the end of the experiment” value was 4. Further, the mortality rate in data set [3] (paclitaxel 20.6 + carboplatin 28 mg/kg i.v. QW) is listed as 80%. Further, the “mice with severe weight loss (>20%) before death” value in data set [3] (paclitaxel 20.6 + carboplatin 28 mg/kg i.v. QW, of the 4 mice that died) was determined as 3. Further, the tumour growth inhibition (TGI) in data set [3] (paclitaxel […] + carboplatin 28 mg/kg i.v. QW) amounted to 56.16%.

The record behind these values is patent US20240398943A1, “METHODS OF TREATING CANCER AND THE PHARMACEUTICAL COMPOSITIONS THEREOF” (SYSTIMMUNE, INC., priority 2021, published 2024).
